The values that follow come from publication PMC3914206.

Test [1] concerns the target T1, panel of 442 kinases (Homo sapiens, UniProt O00329).
T1 construct: purchased KINOMEscan
T1 sequence (O00329 1-1044): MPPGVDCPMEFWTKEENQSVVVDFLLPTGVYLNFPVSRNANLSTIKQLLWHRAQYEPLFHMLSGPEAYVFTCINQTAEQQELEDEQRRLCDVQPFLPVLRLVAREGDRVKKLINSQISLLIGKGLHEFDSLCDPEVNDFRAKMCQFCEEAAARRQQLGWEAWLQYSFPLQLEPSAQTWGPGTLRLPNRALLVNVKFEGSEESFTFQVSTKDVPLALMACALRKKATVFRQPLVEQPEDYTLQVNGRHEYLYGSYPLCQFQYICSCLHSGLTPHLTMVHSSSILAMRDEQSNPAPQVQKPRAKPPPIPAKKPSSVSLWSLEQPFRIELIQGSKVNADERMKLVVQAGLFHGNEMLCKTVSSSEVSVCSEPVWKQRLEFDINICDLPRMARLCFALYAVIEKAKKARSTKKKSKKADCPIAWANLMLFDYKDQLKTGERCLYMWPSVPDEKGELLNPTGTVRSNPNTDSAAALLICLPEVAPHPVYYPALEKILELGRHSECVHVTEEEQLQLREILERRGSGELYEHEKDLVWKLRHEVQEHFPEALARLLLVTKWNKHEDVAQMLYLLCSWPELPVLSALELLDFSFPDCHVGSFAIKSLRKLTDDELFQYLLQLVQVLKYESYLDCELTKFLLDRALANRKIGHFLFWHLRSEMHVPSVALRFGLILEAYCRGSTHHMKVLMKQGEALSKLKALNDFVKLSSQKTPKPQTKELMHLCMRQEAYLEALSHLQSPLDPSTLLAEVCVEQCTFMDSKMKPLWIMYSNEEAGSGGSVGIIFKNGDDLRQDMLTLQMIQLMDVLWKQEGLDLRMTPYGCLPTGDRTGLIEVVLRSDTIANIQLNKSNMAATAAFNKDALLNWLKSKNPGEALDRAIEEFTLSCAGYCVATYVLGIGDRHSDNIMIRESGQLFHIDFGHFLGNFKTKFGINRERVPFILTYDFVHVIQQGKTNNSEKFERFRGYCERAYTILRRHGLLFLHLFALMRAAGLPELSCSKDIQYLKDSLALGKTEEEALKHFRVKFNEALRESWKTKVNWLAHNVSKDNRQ
The format is binding. The conditions noted are these: Compound Concentration 10 µM. The text has this: (§1) We assessed the selectivity of members of this scaffold using the KINOMEscan methodology across a near comprehensive panel of 442 kinases [[18,27]].

In test [2] the target is T2, panel of 442 kinases (Homo sapiens, UniProt P28482).
T2 construct: purchased KINOMEscan
T2 sequence (P28482 whole entry): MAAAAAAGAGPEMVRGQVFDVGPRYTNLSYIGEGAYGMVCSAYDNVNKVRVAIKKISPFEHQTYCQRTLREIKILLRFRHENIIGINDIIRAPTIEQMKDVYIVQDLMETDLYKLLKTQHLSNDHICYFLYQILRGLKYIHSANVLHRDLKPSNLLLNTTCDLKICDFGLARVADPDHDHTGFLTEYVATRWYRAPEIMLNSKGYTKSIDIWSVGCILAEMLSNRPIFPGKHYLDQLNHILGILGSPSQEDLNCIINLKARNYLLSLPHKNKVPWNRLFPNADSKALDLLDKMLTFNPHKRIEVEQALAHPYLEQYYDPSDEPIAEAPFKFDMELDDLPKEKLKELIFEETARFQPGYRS
The format is binding. The conditions noted are these: Compound Concentration 10 µM.
Text: as §1

Molecules are shown by their SMILES.

In the case of `COc1cc(C(=O)N2CCC(N3CCN(C)CC3)CC2)ccc1Nc1ncc2c(n1)N(C)c1ccccc1C(=O)N2C` [15 (LRRK2-IN-1)], in test [1], the “KINOMEscan: PIK3CD” value turned out to be 62. Besides, the “KINOMEscan: ERK2” value in test [2] came to 85.

For the molecule `COc1cc(C(=O)N2CCC(N3CCN(C)CC3)CC2)ccc1Nc1ncc2c(n1)N1CCc3cccc(c31)C(=O)N2C` [Compound 24], in test [2], the “KINOMEscan: ERK2” value is on record as 88.

For `COc1cc(C(=O)N2CCC(N3CCN(C)CC3)CC2)ccc1Nc1ncc2c(n1)N(C1CCCC1)c1ccccc1C(=O)N2C` [Compound 25, 11-cyclopentyl-2-((2-methoxy-4-(4-(4-methylpiperazin-1-yl)piperidine-1-carbonyl)phenyl)amino)-5-methyl-5H-benzo[e]pyrimido[5,4-b][1,4]diazepin-6(11H)-one], the “KINOMEscan: PIK3CD” value in test [1] is listed as 100. Moreover, in test [2], the “KINOMEscan: ERK2” value came out at 98.

As to `CCOc1cc(C(=O)N2CCC(N3CCN(C)CC3)CC2)ccc1Nc1ncc2c(n1)N(C1CCCC1)c1ccccc1C(=O)N2C` [Compound 26], the “KINOMEscan: PIK3CD” value in test [1] turned out to be 91. Besides, the “KINOMEscan: ERK2” value in test [2] is on record as 100.
